In experiment [1] the test system is human fibroblast cells. Here is the method:
The human RPE cells were primarily derived from healthy donors. The human fibroblast cells are purchased from ATCC (WI-38, ATCC® CCL-75) human fibroblasts were maintained in Dulbecco's Modified Eagle Medium (DMEM) supplemented with 10% fetal bovine serum and 50 U/ml penicillin-streptomycin. Human RPE cells were cultured with DMEM/F-12 (1:1) supplemented with 10% fetal bovine serum and 50 U/ml penicillin-streptomycin.
RNA was extracted by RNeasy Mini Kit (QIAGEN, 74104) and the RNase-Free DNase Set (QIAGEN, 79254) was used to ensure no DNA contamination. Reverse transcription was performed by High Capacity cDNA Reverse Transcription Kit (ABI, 4368814). SYBR-qPCR was performed by Power SYBR® Green PCR Master Mix (ABI, 4367659). All primers were designed using PrimerPremier5 and synthesized from Integrated DNA Technologies.

For experiment [2], the system named is Elovl2 knock-down human RPE cells (KE). Description: Drug rescue of Elovl2 knockdown (KE) human RPE cells, AMD phenotype (immunofluorescence, qPCR). Particulars: 5 mM nicotinamide, 48 h, FIGS. 5I-5J. The format is cell-based. Here is the method:
For Elovl2 knockdown, lentivector (pLL3.7-shElovl2) exogenously expressing shRNA (5′-[…]-3′) was made and transfected into 293T cells (ATCC) using Lipofectamin 3000 reagent (Thermo Fisher) to obtain lentivirus. To build the Elovl2-knockdown cell line, human RPE cells (seeded a night ahead in a concentration of 5*10^5 cells/well) in a 6-well plate were infected with the lentivirus containing Elovl2-shRNA for 24h, followed by 24 h of equilibration. Drug treatments were performed at the time of 48 h post-infection. To rescue the Elovl2 knockdown cells, 10 μg/ml curcumin (Sigma, C7727) or 5 mM nicotinamide (Sigma, N0636) or DMSO were added in the cell culture medium and the cells were treated for 48 h.
Murine tissue sample were freshly collected upon perfusion, followed by overnight PFA fixation and sucrose dehydration. Human fibroblast cells, human RPE cells and murine primary cells were fixed with 4% PFA for 1 h. To perform immunofluorescence, the slide was rinsed in PBS for 5 minutes, blocked in blocking buffer (PBS with 1% BSA, 0.1% Tween-20) for 20 minutes at room temperature (RT), and incubated with primary antibody in blocking buffer for 1 hour at RT. After 3 washes with 0.1% Tween-20 in PBS, the slide was incubated with secondary antibody in blocking buffer for 1 hour at RT. The slides were mounted with DAPI-Vectashield solution (Vector laboratories). Images were taken with a confocal microscope (LSM 780). To estimate the mitochondrial conditions, human RPE cells and murine primary cells were incubated with either MitoSOX (5 uM) according to manufacturer's instructions.

Each structure is given as a SMILES string.

As to `OO` [H2O2, hydrogen peroxide], the “methylation on biological aging marker Elovl2” value in experiment [1] (H2O2 treated human fibroblast cells, MeDip-qPCR) is “Increased methylation”. For the same compound, the senescent markers result in experiment [1] (H2O2 treated human fibroblast cells, FIGS. 1D-1E, 6E-6F) is on record as “increase of senescent markers”. Besides, the “expression of Elovl2” value in experiment [1] (after H2O2 treatment, groups with DNMT1, DNMT3A and DNMT3B knockdown but not CHD4 knockdown, FIG. 6H) is “decreased”.

Consider `NC(=O)c1cccnc1` [nicotinamide], for which, in experiment [2], the AMD markers result is “reduction of AMD markers”, the “expression of cellular senescence genes” value is “reversed the abnormal expression of cellular senescence genes” and the mitochondrial dysfunction entry is listed as “reduced mitochondrial dysfunction”.

Values taken from patent publication US20250099553A1, “COMPOSITION AND METHODS FOR MODULATION OF ELOVL2” (YOUHEALTH BIOTECH, LIMITED, priority 2018, published 2025).
